Laboratory results from ChEMBL document CHEMBL1201862, “PubChem BioAssay data set” (2004).
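Test compounds were applied to cells in 96-well plates for 48 hours at 5 doses. Abbreviation: GI50, concentration required for 50% inhibition of growth.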 Active and inactive are the calls of the source. Rule as the data show it: active = GI50 up to about 1.1 µM and inactive = higher.

Tests used:
Test in all cases: DTP human tumour cell line panel, 48 h
[1] = system: HCT-15
[2] = system: SK-OV-3
[3] = system: SNB-19
[4] = system: OVCAR-3
[5] = system: OVCAR-8
[6] = system: CCRF-CEM
[7] = system: BT-549
[8] = system: SK-MEL-28
[9] = system: T47D
[10] = system: SN12C
[11] = system: LOX IMVI
[12] = system: U-251
[13] = system: IGROV-1
[14] = system: ACHN
[15] = system: PC-3
[16] = system: UACC-62
[17] = system: MDA-MB-435
[18] = system: DU-145
[19] = system: UACC-257
[20] = system: TK-10
[21] = system: NCI/ADR-RES
[22] = system: Malme-3M
[23] = system: A549
[24] = system: MDA-N
[25] = system: HOP-92
[26] = system: SK-MEL-5
[27] = system: CAKI-1
[28] = system: SR
[29] = system: SNB-75
[30] = system: UO-31
[31] = system: OVCAR-4
[32] = system: HCC 2998
[33] = system: SF-295
[34] = system: SW-620
[35] = system: SF-268
[36] = system: RPMI-8226
[37] = system: COLO 205
[38] = system: NCI-H23
[39] = system: 786-0
[40] = system: SK-MEL-2
[41] = system: EKVX
[42] = system: MCF7
[43] = system: K562
[44] = system: HT-29
[45] = system: NCI-H460
[46] = system: HCT-116
[47] = system: NCI-H226
[48] = system: A498
[49] = system: MOLT-4
[50] = system: MDA-MB-231
[51] = system: HOP-62
[52] = system: NCI-H522
[53] = system: OVCAR-5
[54] = system: M14
[55] = system: Hs-578T
[56] = system: SF-539
[57] = system: HL-60
[58] = system: KM12
[59] = system: RXF 393

Measured: GI50

COc1ccc2c(c1)CCc1c-2n(CCN2CCCCC2)c2ccc(OC)cc12
inactive: [2] > 100 µM | [3] > 100 µM | [4] > 100 µM | [5] 92 µM | [6] > 100 µM | [7] > 100 µM | [8] > 100 µM | [9] > 100 µM | [10] > 100 µM | [11] > 100 µM | [12] > 100 µM | [13] > 100 µM | [14] > 100 µM | [15] > 100 µM | [16] > 100 µM | [17] > 100 µM | [18] > 100 µM | [19] > 100 µM | [20] > 100 µM | [21] 28.2 µM | [22] > 100 µM | [23] > 100 µM | [24] > 100 µM | [25] > 10 µM | [26] > 100 µM | [27] > 100 µM | [28] > 100 µM | [29] > 100 µM | [30] > 100 µM | [31] > 100 µM | [32] > 100 µM | [33] > 100 µM | [34] > 100 µM | [35] > 100 µM | [36] > 100 µM | [37] > 100 µM | [38] > 100 µM | [39] > 100 µM | [40] > 100 µM | [41] > 100 µM | [42] > 100 µM | [43] 78.7 µM | [44] 9.12 µM | [45] > 100 µM | [46] > 100 µM | [47] 10.4 µM | [48] > 100 µM | [49] > 10 µM | [50] > 100 µM | [51] > 100 µM | [52] 61.5 µM | [53] > 100 µM | [54] > 100 µM | [55] > 100 µM
> 100 µM: [1]

O=C(NNc1ccnc2cc(Cl)ccc12)/C(=C\c1ccccc1Cl)NC(=O)c1ccccc1
inactive: [2] > 100 µM | [3] 46.2 µM | [4] 16.5 µM | [5] 20 µM | [6] 29.8 µM | [56] 27.7 µM | [7] 33.8 µM | [8] > 100 µM | [9] 32.2 µM | [10] 38.1 µM | [11] 17.4 µM | [12] 17.3 µM | [13] 12.5 µM | [14] 25.4 µM | [15] 36.1 µM | [16] 21 µM | [17] 38.6 µM | [18] 55.7 µM | [19] 34.1 µM | [20] 66.1 µM | [21] 24.9 µM | [22] 52.6 µM | [57] 23.4 µM | [23] 38.2 µM | [24] 37.3 µM | [25] 35.6 µM | [58] 20.5 µM | [26] 23.8 µM | [27] 86.3 µM | [28] 35 µM | [29] 39.3 µM | [30] 38.9 µM | [31] 32.8 µM | [32] 60 µM | [33] 27.5 µM | [34] 37.9 µM | [35] 27.4 µM | [36] 29.2 µM | [37] 25.2 µM | [38] 54.7 µM | [39] 41.6 µM | [40] 19.4 µM | [41] 31.8 µM | [42] 15.5 µM | [43] 34.6 µM | [44] 47.8 µM | [45] 42.1 µM | [46] 42.7 µM | [47] 23.2 µM | [50] 74 µM | [51] 19.2 µM | [52] 18.5 µM | [53] 39.7 µM | [54] 31.3 µM | [59] 27.2 µM | [55] 32.5 µM
48.4 µM: [1]

CC(C)OP(=O)(OC(C)C)C(C)(C)O
inactive: [2] > 100 µM | [3] > 100 µM | [4] > 100 µM | [5] > 100 µM | [6] > 100 µM | [56] > 100 µM | [7] > 100 µM | [8] > 100 µM | [9] > 100 µM | [10] > 100 µM | [11] > 100 µM | [12] > 100 µM | [13] > 100 µM | [14] > 100 µM | [15] > 100 µM | [16] > 100 µM | [17] > 100 µM | [18] > 100 µM | [19] > 100 µM | [20] > 100 µM | [21] > 100 µM | [22] > 100 µM | [57] 83.2 µM | [23] > 100 µM | [24] > 100 µM | [25] > 100 µM | [58] > 100 µM | [26] > 100 µM | [27] > 100 µM | [28] > 100 µM | [29] > 100 µM | [30] > 100 µM | [31] > 100 µM | [32] > 100 µM | [33] > 100 µM | [34] > 100 µM | [35] > 100 µM | [36] > 100 µM | [37] > 100 µM | [38] > 100 µM | [39] > 100 µM | [40] > 100 µM | [41] > 100 µM | [42] > 100 µM | [43] > 100 µM | [44] > 100 µM | [46] > 100 µM | [47] > 100 µM | [49] > 100 µM | [50] > 100 µM | [51] > 100 µM | [52] > 100 µM | [53] > 100 µM | [54] > 100 µM | [59] > 100 µM | [55] > 100 µM
> 100 µM: [1]

O=C(c1cccs1)N(C(=S)OC12CC3CC(CC(C3)C1)C2)c1ccccc1
inactive: [2] 28.4 µM | [3] 33.7 µM | [4] 34.6 µM | [5] 31.8 µM | [6] 15.3 µM | [56] 34.5 µM | [7] 35.3 µM | [8] 54.8 µM | [9] 76.7 µM | [10] 27 µM | [11] 22.5 µM | [12] 29.1 µM | [14] 33 µM | [15] 22.8 µM | [16] 25.6 µM | [17] 29.8 µM | [18] 84.7 µM | [19] 39.5 µM | [20] 44 µM | [21] 29.6 µM | [22] 43.2 µM | [57] 25 µM | [23] 32.8 µM | [24] 31.4 µM | [25] 24.8 µM | [58] 31.9 µM | [26] 22.1 µM | [27] 28.3 µM | [28] 25.2 µM | [29] 85.7 µM | [30] 18.7 µM | [31] 35 µM | [32] 32.6 µM | [33] 27.9 µM | [34] 40.7 µM | [35] 37.6 µM | [37] 17.7 µM | [38] 30.2 µM | [39] 35.4 µM | [40] 18.2 µM | [41] 17.8 µM | [42] 30.7 µM | [43] 26.8 µM | [44] 31.8 µM | [45] 33.3 µM | [46] 22.2 µM | [47] 33.3 µM | [48] 33.2 µM | [49] 26.1 µM | [50] 30 µM | [51] 47.6 µM | [52] 17.2 µM | [53] 29.4 µM | [54] 19.2 µM | [59] 62.2 µM | [55] 32 µM
29.8 µM: [1]

CCn1c(=O)c2c3ccc(O)cc3oc2c2ccc(O)cc21
inactive: [2] 38.5 µM | [3] 43.8 µM | [4] 42.7 µM | [5] 50.6 µM | [6] 28.2 µM | [56] 34.9 µM | [7] 26.1 µM | [8] 49.1 µM | [9] 18.1 µM | [10] 41.5 µM | [12] 32.2 µM | [13] 40.4 µM | [14] 24.8 µM | [15] 42.6 µM | [16] 31.1 µM | [17] 33.7 µM | [18] 47.8 µM | [19] > 100 µM | [20] 44 µM | [21] 53.3 µM | [22] 41.7 µM | [23] 41.1 µM | [24] 37.5 µM | [25] 57.9 µM | [58] 49.1 µM | [26] 22.5 µM | [27] 39.4 µM | [28] 27.6 µM | [29] 29.9 µM | [30] 26.7 µM | [31] 62.4 µM | [32] 47 µM | [33] 52.4 µM | [34] 41 µM | [35] 36.9 µM | [37] 44.7 µM | [38] 37.4 µM | [39] 63.4 µM | [41] 3.55 µM | [42] 39.2 µM | [43] 40.6 µM | [44] 48.1 µM | [45] 34.6 µM | [46] 27.2 µM | [47] 42.7 µM | [48] 25.4 µM | [49] 25.5 µM | [50] 30.2 µM | [51] 34.4 µM | [52] 40.1 µM | [54] 43.2 µM | [59] 53.7 µM | [55] 14.6 µM
39.4 µM: [1]
